Experimental data published in patent publication US9994691B2, “Antimicrobial cleansing composition” (Conopco, Inc., d/b/a UNILEVER, priority 2014, dated 2018).

From the text: Disclosed antimicrobial cleansing composition includes 0.1 to 100 ppm silver (I) compound. […] More particularly, silver ion solubility [Ag+], a value given in mol/L may be calculated using the formula: [Ag+]=(Ksp·x)^(1/(x+1))

Silver Ion Solubility [Ag+]: 13 µM
Compound: [Cl][Ag] [Silver chloride]
